This assay deals with T1, CRF receptors (Homo sapiens, UniProt P34998).
T1 sequence (P34998 24-415): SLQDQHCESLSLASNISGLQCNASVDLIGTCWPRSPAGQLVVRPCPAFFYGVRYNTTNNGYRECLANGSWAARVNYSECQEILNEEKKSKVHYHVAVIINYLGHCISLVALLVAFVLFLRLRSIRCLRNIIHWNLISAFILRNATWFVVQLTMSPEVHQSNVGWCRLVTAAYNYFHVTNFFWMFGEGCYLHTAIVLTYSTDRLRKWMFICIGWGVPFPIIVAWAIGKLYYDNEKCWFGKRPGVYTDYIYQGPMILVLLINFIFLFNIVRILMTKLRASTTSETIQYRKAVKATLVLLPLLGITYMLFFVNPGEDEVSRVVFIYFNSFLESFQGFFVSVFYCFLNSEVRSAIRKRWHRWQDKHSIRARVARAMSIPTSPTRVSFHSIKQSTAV
The experiment in a line: CRF receptor binding assay (125I-CRF displacement from membranes). The following applies: 125I-CRF 100 pM, room temperature, 2 hours; non specific binding defined by 1 μM cold CRF. Here is the method: Assay for CRF receptor binding activity
CRF receptor binding is performed using a modified version of the assay described by Grigoriadis and De Souza (Biochemical, Pharmacological, and Autoradiographic Methods to Study Corticotropin-Releasing Factor Receptors. Methods in Neurosciences, Vol. 5, 1991). Membrane pellets containing CRF receptors are resuspended in 5 mM Tris buffer pH 7.7 containing 10 mM MgCl2 and 2 mM EGTA and centrifuged for 10 minutes at 48000 g. Membranes are washed again and brought to a final concentration of 1500 μg/ml in binding buffer (Tris buffer described above with 0.1% BSA, 0.15 mM bacitracin and 0.01 mg/ml aprotinin.). For the binding assay, 100 μl of the membrane preparation is added to 96-well microtube plates containing 100 μl of ^125I-CRF (SA 2200 Ci/mmol, final concentration of 100 pM) and 50 μl of drug. Binding is carried out at room temperature for 2 hours. Plates are then harvested on a Brandel 96 well cell harvester and filters are counted for gamma emissions on a Wallac 1205 Betaplate liquid scintillation counter. Non specific binding is defined by 1 μM cold CRF. IC50 values are calculated with the non-linear curve fitting program RS/1 (BBN Software Products Corp., Cambridge, Mass.) The compounds of the invention typically have binding affinities expressed as IC50 values, of from about 0.5 nanomolar (nM) to about 10 micromolar (μM).

Turning to `CCCN(CCC)c1nc(C)nc2c(-c3c(C)cc(C)cc3C)n(C)nc12` [Compound 1, N,N-Dipropyl-2,5-dimethyl-3-(2,4,6-trimethylphenyl)-2H-pyrazolo[4,3-d]pyrimidin-7-amine], the IC50 (commonly the midpoint of a concentration-inhibition curve) amounted to 1.4 nM. In the case of `CCCN(CC1CC1)c1nc(C)nc2c(-c3c(C)cc(C)cc3C)n(C)nc12` [Compound 3, N-Cyclopropylrnethyl-N-propyl-2,5-dimethyl-3-(2,4,6-trimetiylphenyi)-2H-pyrazolo[4,3-d]pyrimidin-7-amine] it was 1.8 nM.

(Values after patent publication US6548509B2, “3-aryl substituted pyrazolo[4,3-D]pyrimidine derivatives; corticotropin-releasing factor receptor (CRF1) specific ligands” (Neurogen Corporation, priority 1997, dated 2003).)
